One data set deals with Mice. Put plainly: Marble Burying Test (anxiolytic/tranquillizing activity). It is filed as in vivo. As to conditions: 30 minutes before the test, 30 minute test. On the procedure:
Nefopam and (+)-nefopam were evaluated in the Marble Burying Test, a model which detects anxiolytic/tranquillizing activity. This is a general model for affective disorders.
The method follows that described by Broekkamp et al. (1986 Eur. J. Pharmacol., 126, 223-229. Mice exposed to novel objects (marbles) will bury them in the sawdust floor covering. Anxiolytics decrease the number of marbles buried at non-sedative doses.
Mice are individually placed in transparent plastic cages (33×21×18 cm) with 5 cm of sawdust on the floor and 25 marbles grouped in the centre of each cage. Each test cage is covered with an inverted plastic covering. Each test cage, together with the marbles, is impregnated with mouse odor beforehand, by leaving 10 mice in the cage for 15 minutes. These mice then play no further role in the experiment. The number of marbles covered by sawdust (⅔ or more) is counted at the end of a 30 minute test.
All compounds were administered i.p. 30 minutes before the test, and compared with a vehicle control group. Clobazam (8 mg/kg i.p.), administered under the same experimental conditions, was used as reference substance.

In data set [1] the test system is dopamine, norepinephrine and serotonin uptake. As to conditions: in vitro and in vivo; Fasmer et al., 1987; Rosland and Hole, 1990; Mather at al., 2001; cited from earlier work.
For data set [2] the following is noted: conventional release preparations; cited from earlier work.

Structures can show the parent of a compound that is named as a salt. Marks after values point to notes of the source that are not given here.

Consider `CN1CCO[C@@H](c2ccccc2)c2ccccc2C1` [(+)-nefopam], for which the “Number of marbles buried (% change from ctrl)” value (from here on “Number … (% change from ctrl)”) was −56* % change from ctrl with Mice (10 mg/kg ip), −99* % change from ctrl in the data set with Mice (20 mg/kg ip) and −100* % change from ctrl with Mice (40 mg/kg ip). Further, the “order of potency (analgesic and dopamine, norepinephrine and serotonin uptake inhibitory properties)” value in data set [1] was “(+)-nefopam>(±)-nefopam>(−)-nefopam”.

On to `CN1C(=O)CC(=O)N(c2ccccc2)c2cc(Cl)ccc21` [Clobazam], for which the “Number … (% change from ctrl)” value with Mice (32 mg/kg ip) is −75* % change from ctrl.

`CN1CCOC(c2ccccc2)c2ccccc2C1` (racemic) [Nefopam, 5-methyl-1-phenyl-3,4,5,6-tetrahydro-1H-2,5-benzoxazocine hydrochloride]: the “Number … (% change from ctrl)” value in the data set on Mice (10 mg/kg ip) is recorded as −66* % change from ctrl; in the data set with Mice (20 mg/kg ip) it was −98* % change from ctrl; in the data set on Mice (40 mg/kg ip), −100* % change from ctrl. The elimination half-life entry in data set [2] is listed as “four”.
